Assay results from patent publication US11572590B2, “Methods for evaluating tumor cell spheroids using 3D microfluidic cell culture device” (Dana-Farber Cancer Institute, Inc., priority 2017, dated 2023).
Read-outs that look alike come from different tables or passages of the source.

Key:
Assay in all cases: SelectScreen Kinase Profiling, single point inhibition and IC50 for off-target kinases
Type in all cases: biochemical
[1] = biological target: off-target kinases (Homo sapiens, UniProt P50613); details: CDK7/cyclin H/MNAT1, Adapta, ATP Km app
off-target kinases (Homo sapiens, UniProt P50613), sequence (P50613 whole entry): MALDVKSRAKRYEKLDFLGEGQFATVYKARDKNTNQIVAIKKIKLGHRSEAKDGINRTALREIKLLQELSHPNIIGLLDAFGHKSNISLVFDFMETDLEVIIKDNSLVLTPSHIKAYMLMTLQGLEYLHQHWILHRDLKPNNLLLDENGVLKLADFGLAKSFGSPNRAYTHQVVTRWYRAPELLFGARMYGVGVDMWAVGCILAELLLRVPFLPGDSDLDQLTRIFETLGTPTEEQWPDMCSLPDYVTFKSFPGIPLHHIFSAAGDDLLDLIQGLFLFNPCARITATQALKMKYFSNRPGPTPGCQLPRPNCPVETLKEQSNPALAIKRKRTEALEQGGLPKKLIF

[2] = biological target: off-target kinases (Homo sapiens, UniProt P00533); details: EGFR (ErbB1), ZLYTE, ATP Km app
off-target kinases (Homo sapiens, UniProt P00533), sequence (P00533 25-1210): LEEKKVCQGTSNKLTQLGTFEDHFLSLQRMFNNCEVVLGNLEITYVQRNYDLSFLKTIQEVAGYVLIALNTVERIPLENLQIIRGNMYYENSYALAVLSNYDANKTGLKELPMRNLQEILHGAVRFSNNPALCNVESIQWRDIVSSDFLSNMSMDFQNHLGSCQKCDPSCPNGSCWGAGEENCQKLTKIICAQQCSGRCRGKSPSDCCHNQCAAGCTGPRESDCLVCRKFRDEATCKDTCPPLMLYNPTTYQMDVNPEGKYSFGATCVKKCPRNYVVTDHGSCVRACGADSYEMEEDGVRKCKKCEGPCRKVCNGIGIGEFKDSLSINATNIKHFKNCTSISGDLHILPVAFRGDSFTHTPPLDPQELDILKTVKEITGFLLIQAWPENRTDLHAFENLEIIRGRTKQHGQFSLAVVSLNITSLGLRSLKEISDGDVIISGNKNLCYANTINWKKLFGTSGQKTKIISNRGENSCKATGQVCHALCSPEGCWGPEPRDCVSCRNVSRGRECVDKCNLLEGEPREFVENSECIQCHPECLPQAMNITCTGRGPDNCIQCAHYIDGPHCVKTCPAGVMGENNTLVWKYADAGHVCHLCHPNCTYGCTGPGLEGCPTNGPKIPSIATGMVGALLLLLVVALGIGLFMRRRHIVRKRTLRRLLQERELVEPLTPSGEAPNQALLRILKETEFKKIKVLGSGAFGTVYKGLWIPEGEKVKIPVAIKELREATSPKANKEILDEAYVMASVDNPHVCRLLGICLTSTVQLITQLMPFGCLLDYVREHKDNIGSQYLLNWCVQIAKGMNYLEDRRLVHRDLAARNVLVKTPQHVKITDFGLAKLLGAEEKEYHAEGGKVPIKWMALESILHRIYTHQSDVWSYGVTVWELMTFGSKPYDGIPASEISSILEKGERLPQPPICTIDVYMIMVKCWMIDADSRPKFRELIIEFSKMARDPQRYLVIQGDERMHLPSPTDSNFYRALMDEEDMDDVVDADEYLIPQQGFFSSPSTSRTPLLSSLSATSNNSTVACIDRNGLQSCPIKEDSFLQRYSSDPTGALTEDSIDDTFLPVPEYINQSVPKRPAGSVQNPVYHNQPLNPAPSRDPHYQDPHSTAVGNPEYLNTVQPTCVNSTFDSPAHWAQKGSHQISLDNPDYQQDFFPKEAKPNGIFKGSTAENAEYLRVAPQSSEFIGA

[3] = biological target: off-target kinases (Homo sapiens, UniProt Q02763, Y1108F); details: TEK (TIE2) Y1108F, LanthaScreen Binding
off-target kinases (Homo sapiens, UniProt Q02763, Y1108F), sequence (Q02763 23-1124 Y1108F): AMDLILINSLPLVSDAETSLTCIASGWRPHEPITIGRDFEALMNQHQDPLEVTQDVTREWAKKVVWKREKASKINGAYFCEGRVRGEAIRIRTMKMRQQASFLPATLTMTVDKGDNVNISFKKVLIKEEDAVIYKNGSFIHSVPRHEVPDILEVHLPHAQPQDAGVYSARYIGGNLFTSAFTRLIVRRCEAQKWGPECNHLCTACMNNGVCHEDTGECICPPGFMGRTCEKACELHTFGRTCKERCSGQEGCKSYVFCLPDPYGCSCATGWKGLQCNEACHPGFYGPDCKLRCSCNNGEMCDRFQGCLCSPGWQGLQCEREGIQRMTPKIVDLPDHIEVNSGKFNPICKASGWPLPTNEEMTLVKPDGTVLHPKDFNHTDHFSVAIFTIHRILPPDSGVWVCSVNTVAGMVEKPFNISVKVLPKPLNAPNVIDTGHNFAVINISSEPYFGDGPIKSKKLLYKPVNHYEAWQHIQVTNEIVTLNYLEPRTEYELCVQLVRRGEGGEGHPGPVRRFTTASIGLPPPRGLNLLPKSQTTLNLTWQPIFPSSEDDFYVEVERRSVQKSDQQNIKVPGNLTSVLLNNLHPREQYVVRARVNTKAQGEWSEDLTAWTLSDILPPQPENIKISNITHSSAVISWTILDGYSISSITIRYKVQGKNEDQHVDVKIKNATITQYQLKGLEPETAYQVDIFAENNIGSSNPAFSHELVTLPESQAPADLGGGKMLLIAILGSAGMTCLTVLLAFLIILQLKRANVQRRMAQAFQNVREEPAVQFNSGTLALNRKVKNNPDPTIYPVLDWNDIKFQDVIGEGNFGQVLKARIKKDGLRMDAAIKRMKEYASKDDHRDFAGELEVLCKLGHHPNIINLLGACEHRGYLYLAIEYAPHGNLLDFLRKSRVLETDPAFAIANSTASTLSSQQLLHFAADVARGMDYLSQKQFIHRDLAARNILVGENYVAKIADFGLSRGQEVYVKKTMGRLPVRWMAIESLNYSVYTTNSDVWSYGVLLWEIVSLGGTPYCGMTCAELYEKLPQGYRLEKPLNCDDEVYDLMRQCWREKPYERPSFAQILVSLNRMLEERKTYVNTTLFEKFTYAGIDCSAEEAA

[4] = biological target: T1, off-target kinases (Homo sapiens, UniProt P42680); details: TEC, LanthaScreen Binding
T1 sequence (P42680 1-631): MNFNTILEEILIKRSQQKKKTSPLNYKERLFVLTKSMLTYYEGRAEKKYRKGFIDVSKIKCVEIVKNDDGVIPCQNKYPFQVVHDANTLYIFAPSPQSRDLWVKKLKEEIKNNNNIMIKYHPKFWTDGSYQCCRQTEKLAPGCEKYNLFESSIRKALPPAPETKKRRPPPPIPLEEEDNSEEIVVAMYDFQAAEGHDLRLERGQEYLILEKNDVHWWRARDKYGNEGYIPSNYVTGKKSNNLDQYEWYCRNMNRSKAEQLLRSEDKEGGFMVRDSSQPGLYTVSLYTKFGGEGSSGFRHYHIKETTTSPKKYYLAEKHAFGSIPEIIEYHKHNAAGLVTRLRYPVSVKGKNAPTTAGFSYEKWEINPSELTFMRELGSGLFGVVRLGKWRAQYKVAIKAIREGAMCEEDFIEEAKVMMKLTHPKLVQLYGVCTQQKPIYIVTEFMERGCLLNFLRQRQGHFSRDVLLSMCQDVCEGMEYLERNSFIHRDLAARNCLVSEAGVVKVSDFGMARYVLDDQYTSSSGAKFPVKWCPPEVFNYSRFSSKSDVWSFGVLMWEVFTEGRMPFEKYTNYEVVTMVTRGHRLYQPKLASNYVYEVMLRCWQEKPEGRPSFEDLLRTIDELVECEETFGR

Molecule `N#Cc1cc(-c2ncnc(Nc3ccc(N4CCN(C5COC5)CC4)cc3)n2)ccc1OC1CCOCC1` [Compound 1, 5-(4-((4-(4-(oxetan-3-yl)piperazin-1-yl)phenyl)amino)-1,3,5-triazin-2-yl)-2-((tetrahydro-2H-pyran-4-yl)oxy)benzonitrile] has an inhibition ([1]; read-out: % Inhibition 1) of 17%, an inhibition ([1]; read-out: % Inhibition 2) of 14% and an inhibition ([1]; read-out: % Inhibition Avg) of 15%. The inhibition ([2]; read-out: % Inhibition 1) was 10%, the inhibition ([2]; read-out: % Inhibition 2) was 9% and the inhibition ([2]; read-out: % Inhibition Avg) was 9%. It also gave an inhibition ([3]; read-out: % Inhibition 1) of 53%, an inhibition ([3]; read-out: % Inhibition 2) of 52% and an inhibition ([3]; read-out: % Inhibition Avg) of 53%. For the same molecule, the inhibition ([4]; read-out: % Inhibition 1) was 0%, the inhibition ([4]; read-out: % Inhibition 2) was 2% and the inhibition ([4]; read-out: % Inhibition Avg) was 1%.
